From patent US20080167330A1, “Carbamoylsulphoximides as protein kinase inhibitors” (priority 2006, published 2008) come the findings set out here.

One assay concerns the target T1, human Aurora-C (Homo sapiens, UniProt Q9UQB9).
T1 construct: GST; made in house; host or cells: transiently transfected HEK293 cells
T1 sequence (Q9UQB9 1-309): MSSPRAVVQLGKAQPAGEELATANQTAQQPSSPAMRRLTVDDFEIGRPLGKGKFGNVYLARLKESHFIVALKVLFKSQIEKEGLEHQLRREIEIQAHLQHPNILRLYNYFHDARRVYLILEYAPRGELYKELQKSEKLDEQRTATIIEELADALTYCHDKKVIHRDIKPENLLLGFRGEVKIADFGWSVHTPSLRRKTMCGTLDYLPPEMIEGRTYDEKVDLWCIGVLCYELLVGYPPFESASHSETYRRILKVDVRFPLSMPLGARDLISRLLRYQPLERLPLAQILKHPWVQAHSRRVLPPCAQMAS
The experiment in a line: Aurora-C kinase assay (HTRF). The note with it: 10 μM ATP. The class given is biochemical. The method, then: The Aurora-C inhibitory activity of the substances of this invention was measured in the Aurora-C-HTRF assay (HTRF=Homogeneous Time Resolved Fluorescence) described in the following paragraphs.
Recombinant fusion protein of GST and human Aurora-C was expressed in transiently transfected HEK293 cells and purified by affinity chromatography on glutathione-Sepharose. The substrate used for the kinase reaction was the biotinylated peptide biotin-Ttds-FMRLRRLSTKYRT (C terminus in amide form) which can be purchased for example from JERINI Peptide Technologies (Berlin). Aurora-C was incubated in the presence of various concentrations of test substances in 5 μL of assay buffer [25 mM Hepes/NaOH pH 7.4, 0.5 mM MnCl2, 2.0 mM dithiothreitol, 0.1 mM sodium orthovanadate, 10 μM adenosine triphosphate (ATP), […] substrate, 0.01% (v/v) TritonX-100 (Sigma), 0.05% (w/v) bovine serum albumin (BSA), 1% (v/v) dimethyl sulphoxide] at 22° C. for 60 min. The concentration of Aurora-C was adapted to the particular activity of the enzyme and adjusted so that the assay operated in the linear range. Typical concentrations were in the region of 0.3 nM. The reaction was stopped by adding 5 μl of a solution of HTRF detection reagents (0.2 μM streptavidin-XLent and 1.4 nM anti-phospho-(Ser/Thr)-Akt substrate-Eu-cryptate (Cis biointernational, France, product No. 61P02KAE), a Europium-cryptate-labelled phospho-(Ser/Thr)-Akt substrate antibody [product #9611B, Cell Signaling Technology, Danvers, Mass., USA]) in aqueous EDTA solution (40 mM EDTA, 400 mM KF, 0.05% (w/v) bovine serum albumin (BSA) in 25 mM HEPES/NaOH pH 7.0).
The resulting mixture was incubated at 22° C. for 1 h in order to allow formation of a complex of the biotinylated phosphorylated substrate and the detection reagents. The amount of phosphorylated substrate was then estimated by measuring the resonance energy transfer from the anti-phospho-(Ser/Thr)-Akt substrate-Eu cryptate to the streptavidin-XLent. For this purpose, the fluorescence emissions at 620 nm and 665 nm after excitation at 350 nm were measured in an HTRF measuring instrument, e.g. a Rubystar (BMG Labtechnologies, Offenburg, Germany) or a Viewlux (Perkin-Elmer). The ratio of the emissions at 665 nm and at 622 nm was taken as a measure of the amount of phosphorylated substrate. The data were normalized (enzymic reaction without inhibitor=0% inhibition, all other assay components but no enzyme=100% inhibition) and IC50 values were calculated with a 4-parameter fit using an inhouse software.
A general note: Time-resolved FRET reads energy transfer from a long-lived donor to a nearby acceptor.

For the next assay, the target named is T2, KDR (VEGFR2) (Homo sapiens, UniProt P35968).
T2 construct: GST; purchased ProQinase GmbH, Freiburg; host or cells: baculovirus-infected insect cells (Sf9)
Kind of assay: KDR kinase assay. The class given is biochemical. The note with it: 8 μM ATP. The method, then: Recombinant KDR kinase-GST fusion proteins purified from baculovirus-infected insect cells (Sf9), were purchased from ProQinase GmbH, Freiburg. Poly(Glu4Tyr)n, which was used as kinase substrate, was purchased from Sigma.
KDR kinase was incubated in the presence of various concentrations of test substances (0 μM, and within the range 0.01-100 μM) in 40 μL of assay buffer [40 mM Tris/HCl pH 7.5, 10 mM MgCl2, 1 mM MnCl2, 1.0 mM dithiothreitol, 8 μM ATP, 0.025% PEG20000, 24 ng/μL poly(Glu4Tyr)n, 0.2 μCi/measurement point ^33P-gamma ATP, 1.25% dimethyl sulphoxide] at 22° C. for 10 min. The reaction was stopped by adding EDTA solution (250 mM, pH 7.5, 15 μl/measurement point). 15 μl of each reaction mixture were loaded onto P30 filter strips (from Wallac), and non-incorporated ^33P-ATP was removed by washing the filter strips three times in 0.5% strength phosphoric acid for 10 min each time.
After the filter strips had been dried at 70° C. for 1 hour, the filter strips were covered with scintillator strips (MeltiLex™ A, from Wallac) and baked at 90° C. for 1 hour. The amount of incorporated ^33P (substrate phosphorylation) was determined by scintillation measurement in a gamma radiation counter (Wallac).
The measured data were normalized to 0% inhibition (enzyme reaction without inhibitor) and 100% inhibition (all assay components except enzyme). The IC50 values were determined by means of a 4-parameter fit using the company's own software.

Assay [1] concerns human MCF7 breast tumour cells. Kind of assay: MCF7 proliferation assay. It counts as cell-based. The following applies: MCF7, 96 h, 4 days incubation, crystal violet staining. The method, then:
Cultivated human MCF7 breast tumour cells (ATCC HTB-22) were plated out in a density of 5000 cells/measurement point in 200 μl of growth medium (RPMI1640, 10% foetal calf serum, 2 mU/mL insulin, 0.1 nM oestradiol) in a 96-well multititre plate. After 24 hours, the cells from a plate (zero plate) were stained with crystal violet (see below), while the medium in the other plates was replaced by fresh culture medium (200 μl) to which the test substances had been added in various concentrations (0 μM, and in the range 0.01-30 μM; the final concentration of the solvent dimethyl sulphoxide was 0.5%). The cells were incubated in the presence of the test substances for 4 days. The cell proliferation was determined by staining the cells with crystal violet: the cells were fixed by adding 20 μl/measurement point of an 11% strength glutaraldehyde solution at room temperature for 15 min. After the fixed cells had been washed three times with water, the plates were dried at room temperature. The cells were stained by adding 100 μl/measurement point of a 0.1% strength crystal violet solution (pH adjusted to pH 3 by adding acetic acid). After the stained cells had been washed three times with water, the plates were dried at room temperature. The dye was dissolved by adding 100 μl/measurement point of a 10% strength acetic acid solution, and the extinction was determined by photometry at a wavelength of 595 nm. The percentage change in cell growth was calculated by normalizing the measurements to the extinctions of the zero point plate (=0%) and the extinction of the untreated (0 μM) cells (=100%). The IC50 values were determined by means of a 4-parameter fit using the company's own software.

Usually IC50 stands for the concentration that inhibits the measured activity by half. A high value points to weaker potency in that assay.

T2 sequence (P35968 807-1356 limits assumed): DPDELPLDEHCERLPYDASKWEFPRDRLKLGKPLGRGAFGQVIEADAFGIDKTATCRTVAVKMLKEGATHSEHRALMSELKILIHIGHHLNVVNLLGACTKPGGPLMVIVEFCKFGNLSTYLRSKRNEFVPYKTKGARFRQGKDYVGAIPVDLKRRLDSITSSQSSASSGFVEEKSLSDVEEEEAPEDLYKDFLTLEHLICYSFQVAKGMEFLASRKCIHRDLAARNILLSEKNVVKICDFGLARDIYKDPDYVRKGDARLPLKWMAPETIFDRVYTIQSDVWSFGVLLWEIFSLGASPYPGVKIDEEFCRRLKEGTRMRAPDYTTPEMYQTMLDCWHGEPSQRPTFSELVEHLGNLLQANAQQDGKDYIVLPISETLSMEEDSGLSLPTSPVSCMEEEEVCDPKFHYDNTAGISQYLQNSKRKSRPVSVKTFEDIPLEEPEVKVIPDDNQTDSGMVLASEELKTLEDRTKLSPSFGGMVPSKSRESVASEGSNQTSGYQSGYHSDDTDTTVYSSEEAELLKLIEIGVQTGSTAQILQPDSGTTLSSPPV

Consider `C[C@@H](O)[C@@H](C)Nc1nc(Nc2ccc(C(=O)N=S(C)(C)=O)cc2)ncc1Br` [Example 18, N-{4-[(5-Bromo-4-{[(1R,2R)-2-hydroxy-1-methylpropyl]amino}pyrimidin-2-yl)amino]benzoyl}-S,S-dimethylsulphoximide], for which the IC50 at human Aurora-C is 280 nM; against KDR (VEGFR2), 61 nM; in assay [1] it was 140 nM.

For `C[C@@H](Nc1nc(Nc2ccc(C(=O)N=S(C)(C)=O)cc2)ncc1Br)C(C)(C)O` [Example 19, N-{4-[(5-Bromo-4-{[(R)-2-hydroxy-1,2-dimethylpropyl]amino}pyrimidin-2-yl)amino]benzoyl}S,S-dimethylsulphoximide], the IC50 at human Aurora-C was determined as 740 nM; at KDR (VEGFR2), 120 nM; in assay [1] it was 250 nM.

Take `C[C@@H](O)[C@@H](C)Oc1nc(Nc2ccc(C(=O)N=S(C)(C)=O)cc2)ncc1Br` [Example 20, N-{4-[(5-Bromo-4-{[(1R,2R)-2-hydroxy-1-methylpropyl]oxy}pyrimidin-2-yl)amino]benzoyl}-S,S-dimethylsulphoximide]: the IC50 worked out at 310 nM against human Aurora-C, 96 nM against KDR (VEGFR2) and 310 nM in assay [1].
